According to patent US12227500B2, “Substituted pyrrolo[2,3-b]pyridines for suppressing toxic endoplasmic reticulum stress” (THE TRUSTEES OF COLUMBIA UNIVERSITY IN THE CITY OF NEW YORK, priority 2018, dated 2025):
Where two headings read alike, the source gives them in different places.

Columns and labels:
[1] = target: T1, MLK1/MAP3K9 (Homo sapiens, UniProt P80192); test: Radiolabeled ATP kinase assay (Reaction Biology Corp.), MLK1; type: biochemical; conditions: [Cmpd] 0.1 μM, 10 μM ATP
T1 construct: purchased Reaction Biology Corp
Method: (§1) Meanwhile, the same analogs were analyzed in a radiolabeled ATP assay (10 μM ATP; Reaction Biology Corp.) to compare the extent to which they could inhibit the activity of HGK, MLK1, or MLK3 in a cell-free environment (Table S3 and S4).

[2] = target: T2, MLK3/MAP3K11 (Homo sapiens, UniProt Q16584); test: Radiolabeled ATP kinase assay (Reaction Biology Corp.), MLK3; type: biochemical; conditions: [Cmpd] 0.1 μM; 10 μM ATP
T2 construct: purchased Reaction Biology Corp
Method: as §1

[3] = target: HGK/MAP4K4 (Homo sapiens, UniProt O95819); test: Radiolabeled ATP kinase assay (Reaction Biology Corp.), HGK; type: biochemical; design: purchased Reaction Biology Corp; conditions: 10 μM ATP, read-out: % Enzyme Activity (relative to DMSO controls), HGK/MAP4K4, Data 1; for remaining activity at 0.025 µM: [Cmpd] 0.025 μM; for remaining activity at 0.1 µM: [Cmpd] 0.1 μM
Method: as §1

[4] = system: human ES motor neurons carrying the ALS-causing SOD1^A4V mutation; test: cells; type: cell-based; conditions: Homo sapiens, Neuron, 72 h, 72 h; for EC50 / Emax: CPA 33 μM; for EC50: read-out: EC50; for viability at 1 µM: CPA (33 μM) + compound (1 μM), read-out: Motor Neuron Survival, % untreated; for Emax: read-out: Emax (MN survival % untreated)
Method: Next, survival assays were performed with all the analogs at once to generate a low-variability dataset. All compounds were evaluated at concentrations ranging from 0.1-3.0 μM (five-point dilution) in three technical replicates and two biological replicates.

[5] = read-out: % Enzyme Activity Remaining (relative to DMSO controls), MLK1/MAP3K9, Data 1
[6] = read-out: % Enzyme Activity Remaining (relative to DMSO controls), MLK1/MAP3K9, Data 2

T2 sequence (Q16584 whole entry): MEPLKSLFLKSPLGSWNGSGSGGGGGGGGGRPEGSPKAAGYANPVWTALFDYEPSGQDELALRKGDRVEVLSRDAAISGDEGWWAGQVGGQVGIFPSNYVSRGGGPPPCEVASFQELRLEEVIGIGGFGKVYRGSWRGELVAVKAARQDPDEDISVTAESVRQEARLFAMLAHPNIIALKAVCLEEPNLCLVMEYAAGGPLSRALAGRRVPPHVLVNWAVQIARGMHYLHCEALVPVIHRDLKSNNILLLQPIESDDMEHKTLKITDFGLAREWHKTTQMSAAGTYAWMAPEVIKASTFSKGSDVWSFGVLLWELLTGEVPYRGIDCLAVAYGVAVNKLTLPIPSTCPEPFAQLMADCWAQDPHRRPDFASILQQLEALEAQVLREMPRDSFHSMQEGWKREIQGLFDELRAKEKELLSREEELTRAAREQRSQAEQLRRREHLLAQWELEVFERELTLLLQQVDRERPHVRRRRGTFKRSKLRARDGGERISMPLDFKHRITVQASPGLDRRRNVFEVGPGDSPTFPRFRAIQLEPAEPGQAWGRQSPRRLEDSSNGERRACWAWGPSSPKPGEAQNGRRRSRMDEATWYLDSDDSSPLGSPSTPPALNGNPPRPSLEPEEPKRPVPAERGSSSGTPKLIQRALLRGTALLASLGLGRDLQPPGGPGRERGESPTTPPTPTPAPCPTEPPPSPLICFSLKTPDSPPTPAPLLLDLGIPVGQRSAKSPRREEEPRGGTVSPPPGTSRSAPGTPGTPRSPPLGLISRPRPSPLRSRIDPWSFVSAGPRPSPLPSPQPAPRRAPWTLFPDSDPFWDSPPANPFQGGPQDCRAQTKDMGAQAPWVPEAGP
Sequence of HGK/MAP4K4 (O95819 whole entry): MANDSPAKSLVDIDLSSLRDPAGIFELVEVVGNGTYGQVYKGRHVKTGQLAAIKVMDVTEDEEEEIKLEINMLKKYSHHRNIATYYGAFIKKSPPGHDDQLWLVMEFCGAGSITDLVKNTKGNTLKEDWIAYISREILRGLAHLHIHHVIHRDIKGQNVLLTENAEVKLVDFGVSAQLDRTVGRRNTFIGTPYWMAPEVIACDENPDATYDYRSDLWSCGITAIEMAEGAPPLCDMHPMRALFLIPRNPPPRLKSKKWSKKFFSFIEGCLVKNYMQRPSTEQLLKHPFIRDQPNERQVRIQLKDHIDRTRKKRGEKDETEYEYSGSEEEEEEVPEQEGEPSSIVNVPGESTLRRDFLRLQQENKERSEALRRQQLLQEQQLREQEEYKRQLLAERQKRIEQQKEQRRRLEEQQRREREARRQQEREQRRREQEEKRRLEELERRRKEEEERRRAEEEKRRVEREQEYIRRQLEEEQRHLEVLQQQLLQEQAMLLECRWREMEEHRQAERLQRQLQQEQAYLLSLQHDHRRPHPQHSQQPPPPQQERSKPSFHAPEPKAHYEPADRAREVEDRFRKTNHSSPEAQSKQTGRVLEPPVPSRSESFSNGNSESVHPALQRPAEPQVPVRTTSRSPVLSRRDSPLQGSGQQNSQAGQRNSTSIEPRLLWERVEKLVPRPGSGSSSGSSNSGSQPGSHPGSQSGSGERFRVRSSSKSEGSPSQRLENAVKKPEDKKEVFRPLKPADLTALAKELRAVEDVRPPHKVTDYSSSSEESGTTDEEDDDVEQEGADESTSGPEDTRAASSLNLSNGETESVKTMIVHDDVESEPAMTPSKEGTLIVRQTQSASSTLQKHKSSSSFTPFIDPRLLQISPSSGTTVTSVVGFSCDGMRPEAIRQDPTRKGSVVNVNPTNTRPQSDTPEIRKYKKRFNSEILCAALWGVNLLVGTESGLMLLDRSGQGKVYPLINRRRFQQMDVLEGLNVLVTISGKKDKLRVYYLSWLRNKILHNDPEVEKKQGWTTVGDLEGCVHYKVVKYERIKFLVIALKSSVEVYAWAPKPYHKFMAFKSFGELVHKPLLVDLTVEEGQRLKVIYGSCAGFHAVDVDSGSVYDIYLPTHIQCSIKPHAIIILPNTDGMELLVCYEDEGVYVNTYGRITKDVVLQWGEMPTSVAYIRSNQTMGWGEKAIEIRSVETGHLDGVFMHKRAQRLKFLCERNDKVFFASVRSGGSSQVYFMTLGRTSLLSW
T1 sequence (P80192 whole entry): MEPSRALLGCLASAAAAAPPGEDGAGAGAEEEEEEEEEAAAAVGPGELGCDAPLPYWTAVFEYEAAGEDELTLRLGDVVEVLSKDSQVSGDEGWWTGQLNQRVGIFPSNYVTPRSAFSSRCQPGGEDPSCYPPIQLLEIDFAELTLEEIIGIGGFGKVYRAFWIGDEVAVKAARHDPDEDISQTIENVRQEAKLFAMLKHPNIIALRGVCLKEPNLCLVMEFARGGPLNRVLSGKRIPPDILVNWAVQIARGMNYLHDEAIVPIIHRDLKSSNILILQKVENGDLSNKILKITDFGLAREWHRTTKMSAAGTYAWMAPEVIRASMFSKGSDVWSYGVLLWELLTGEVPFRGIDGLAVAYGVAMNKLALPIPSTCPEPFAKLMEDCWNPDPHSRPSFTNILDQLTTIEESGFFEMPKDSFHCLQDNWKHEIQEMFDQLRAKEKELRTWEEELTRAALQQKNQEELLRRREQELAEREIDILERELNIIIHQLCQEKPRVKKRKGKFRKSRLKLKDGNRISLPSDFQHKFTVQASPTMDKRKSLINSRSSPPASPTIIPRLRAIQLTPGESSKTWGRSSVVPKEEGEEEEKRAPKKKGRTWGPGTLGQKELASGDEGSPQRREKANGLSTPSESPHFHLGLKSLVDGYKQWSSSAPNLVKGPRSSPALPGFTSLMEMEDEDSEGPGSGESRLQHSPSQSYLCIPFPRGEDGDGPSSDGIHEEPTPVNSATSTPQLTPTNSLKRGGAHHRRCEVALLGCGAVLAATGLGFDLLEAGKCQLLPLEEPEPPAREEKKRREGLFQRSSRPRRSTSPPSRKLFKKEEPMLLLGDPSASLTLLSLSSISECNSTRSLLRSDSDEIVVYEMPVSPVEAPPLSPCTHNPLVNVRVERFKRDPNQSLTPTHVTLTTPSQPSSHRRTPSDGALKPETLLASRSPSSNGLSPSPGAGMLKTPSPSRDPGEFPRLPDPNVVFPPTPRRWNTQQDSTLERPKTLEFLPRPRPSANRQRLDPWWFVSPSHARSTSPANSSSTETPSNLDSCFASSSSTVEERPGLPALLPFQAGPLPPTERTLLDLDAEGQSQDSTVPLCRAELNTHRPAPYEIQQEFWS

Structure (SMILES) | remaining activity at 0.1 µM [1, 5] [%] | remaining activity at 0.1 µM [1, 6] [%] | % Enzyme Activity Remaining (relative to DMSO controls), MLK3/MAP3K11, Data 1 [2] [%] | % Enzyme Activity Remaining (relative to DMSO controls), MLK3/MAP3K11, Data 2 [2] [%] | remaining activity at 0.025 µM [3] [%] | remaining activity at 0.1 µM [3] [%] | EC50 [4] [nM] | viability at 1 µM [4] [%] | Emax [4] [%]
Cc1cc(-c2c[nH]c3ncc(-c4ccc(CN5CCN(C)CC5)cc4)cc23)cnc1N [Compound 7l, 3-Methyl-5-(5-(4-((4-methylpiperazin-1-yl)methyl)phenyl)-1H-pyrrolo[2,3-b]pyridin-3-yl)pyridin-2-amine] | 53.2 | 52.4 | 58.50 | 57.04 | 27 | 5.45 | 177 | 106 | 106
CN1CCN(Cc2ccc(-c3cnc4[nH]cc(-c5ccc(C#N)cc5)c4c3)cc2)CC1 [Compound 7o, 4-(5-(4-((4-Methylpiperazin-1-yl)methyl)phenyl)-1H-pyrrolo[2,3-b]pyridin-3-yl)benzonitrile] | 93.4 | 90.7 | 90.12 | 92.65 | 58.9 | 29.3 | 775 | 49.7 | 68.6
CN1CCN(Cc2ccc(-c3cnc4[nH]cc(-c5ccc(NC(=O)NC6CCCCC6)cc5)c4c3)cc2)CC1 [Compound 7aw, 1-Cyclohexyl-3-(4-(5-(4-((4-methylpiperazin-1-yl)methyl)phenyl)-1H-pyrrolo[2,3-b]pyridin-3-yl)phenyl)urea] | 79.8 | 79.4 | 65.23 | 66.67 | 85.4 | 58.5 | 406 | 27.5 | 27.5
CC(=O)c1ccc(-c2c[nH]c3ncc(-c4ccc(CN5CCN(C)CC5)cc4)cc23)cc1 [Compound 7x, 1-(4-(5-(4-((4-Methylpiperazin-1-yl)methyl)phenyl)-1H-pyrrolo[2,3-b]pyridin-3-yl)phenyl)ethan-1-one] | 65.8 | 67.7 | 67.84 | 65.08 | 30.8 | 7.1 | 322 | 78.1 | 78.1
C[C@@H](NC(=O)Nc1cccc(-c2c[nH]c3ncc(-c4ccc(CN5CCN(C)CC5)cc4)cc23)c1)c1ccccc1 [Compound 7ax, (R)-1-(3-(5-(4-((4-methylpiperazin-1-yl)methyl)phenyl)-1H-pyrrolo[2,3-b]pyridin-3-yl)phenyl)-3-(1-phenylethyl)urea] | 93.5 | 92.3 | 90.99 | 86.58 | 93.6 | 78.7 | 1440 | 17.4 | 35.5
COC(=O)Nc1cccc(-c2c[nH]c3ncc(-c4ccc(CN5CCN(C)CC5)cc4)cc23)c1 [Compound 7al, Methyl (3-(5-(4-((4-methylpiperazin-1-yl)methyl)phenyl)-1H-pyrrolo[2,3-b]pyridin-3-yl)phenyl)carbamate] | 33.4 | 32.7 | 32.96 | 30.90 | 33.8 | 6.76 | 670 | – | 113
